We go through 56 compounds from the OPERA property sets (Mansouri et al. 2018).

Conditions in one series: not given
As for `CCCCCCCCOc1ccc(NC(=O)OCCN2CCOCC2)cc1`, the logP was 4.8.

`O=[N+]([O-])c1cnc(N2CCNC2=S)s1` came in with a logP of 1.7.

Regarding `CCOC(=O)c1cnc2n(c1=O)CC(C)CC2` (stereo unspecified), the logP came out at 0.71.

In turn, `CC(C)NC(=N)NC(=N)Nc1ccc(Cl)cc1` gave a logP of 2.53.

`CCCCN(C)N=Nc1ccc(C(N)=O)cc1` displayed a logP of 2.46.

In turn, `CCC1(c2ccccc2)C(=O)NC(=O)N1S(=O)(=O)c1ccccc1` (stereo unspecified) yielded a log partition coefficient (logP) of 2.44.

Consider `OC1CCN(Cc2cccc(COc3ccccc3)c2)CC1`, for which the logP amounted to 2.77.

Regarding `Cc1c(C)c(C)c(C)c(C)c1C`, the logP is 5.11.

`Cc1ccc(C(=O)C(C)CN2CCCCC2)cc1` (stereo unspecified) yielded a logP of 3.65.

Take `CCc1nc(S(=O)(=O)Nc2c(F)cccc2F)nn1-c1ccccc1`: the log partition coefficient (logP) was found to be 3.7.

`CN(C)C(=O)c1cccc(Oc2ccccc2)c1` had a logP of 2.57.

Regarding `NC1C2CCC1c1cc(C(F)(F)F)ccc1C2` (stereo unspecified), the logP amounted to 3.59.

As to `COC(=O)c1c(C)[nH]c(-c2ccc(Cl)cn2)c1C(=O)OC`, the lipophilicity (logP) was 2.7.

In turn, `N#Cc1ccc(Cl)cc1` returned a logP of 2.47.

Regarding `O=c1[nH]c(=O)n(-c2ccc(Cl)cc2Cl)cc1F`, the logP is 1.96.

The compound `C=C1C(=O)OC2CC3=CC(CC4(C)OC4C(O)C12)OC3=O` (stereo unspecified) came in with a logP of -0.64.

`ClC(Cl)Br` yielded a logP of 2.

In turn, `O=C(O)C=Cc1ccc(O)cc1` registered a logP of 1.46.

Compound `O=C(O)COc1ccc(Oc2ccc(Cl)cc2Cl)cc1` gave a logP of 4.51.

`CCC(O)C(CC(C)N(C)C)(c1ccccc1)c1ccccc1` (stereo unspecified) gave a logP of 4.27.

Regarding `CNC=Nc1ccc(C)cc1C`, the logP worked out at 2.92.

Regarding `CN(Cc1ccccc1)C(=O)C(Cc1ccccc1)NC(=O)C(Cc1cn(C(=O)OC(C)(C)C)c2ccccc12)NC(=O)CC1NC(=O)C2C3CCC(CC3)N2C1=O` (stereo unspecified), the logP was determined as 5.33.

Consider `CCOC(=O)OCn1cc(F)c(=O)[nH]c1=O`, for which the log partition coefficient (logP) is -0.04.

As for `Nc1nc(=O)c2[nH]c(N)c(Cc3ccsc3)c2[nH]1`, the logP was 1.08.

`CN1CCN(Cc2ncc([N+](=O)[O-])n2C)CC1` yielded a logP of -0.32.

`O=C(OCC1OC(n2cc(I)c(=O)[nH]c2=O)CC1O)c1ccc([N+](=O)[O-])cc1` (stereo unspecified) displayed a logP of 1.24.

`Cc1cc(N)ccc1C(=O)O` gave a logP of 1.14.

`O=C(CCN1CCCCC1)CN1C(=O)CC(c2ccc(Cl)cc2)C1=O` (stereo unspecified): the logP is 2.23.

As to `CCN(CC)CCCN1c2ccccc2Sc2ccc(Cl)cc21`, the logP turned out to be 6.46.

The compound `CC(=O)Nc1ccn(C2OC(CO)C(O)C2O)c(=O)n1` (stereo unspecified) had a logP of -1.35.

As for `CCCc1ccc(OCC(OC(=S)n2ccnc2)C(C)(C)C)cc1` (stereo unspecified), the logP was 5.77.

`CC(=O)NCc1ccc(OCC(O)CNC(C)C)cc1` (stereo unspecified) came in with a logP of 0.32.

Turning to `CCCCCCNC(=O)n1cc(F)c(=O)[nH]c1=O`, the logP is 2.63.

As to `O=c1c2c(nc3ccccn13)CCC2`, the logP amounted to 1.19.

Take `Cc1nc(N)sc1C(=O)CCN1CCCCC1`: the logP came to 2.13.

Regarding `Cc1onc(-c2ccccc2Cl)c1C(=O)NC1C(=O)N2C1SC(C)(C)C2C(=O)O` (stereo unspecified), the logP was found to be 2.48.

Compound `CCNC(=O)NCCCn1nc(-c2ccccc2)ccc1=O` had a logP of 1.68.

`CCOC(=O)C1=C(C)NC(C)=C(C(=O)OC)C1c1cccc(Cl)c1Cl` (stereo unspecified) came in with a logP of 3.86.

Compound `Cc1cccc(Nc2c([N+](=O)[O-])c(C)nn2-c2ccccc2)c1` had a logP of 3.25.

With `NC(=O)Nc1ccc(Cl)c(Cl)c1`, the log partition coefficient (logP) stood at 2.65.

`C=CC(=O)OCCOCCOCCOCCOC(=O)C=C` yielded a logP of 1.26.

In turn, `O=C1CN=C(c2ccccc2F)c2cc(Cl)ccc2N1CC(F)(F)F` came in with a logP of 3.36.

Take `O=C1CC2(CCCC2)C(=O)N1OCc1ccccc1`: the logP was 2.3.

The compound `C[C@@H]1O[C@@H](O[C@@H]2C=C3CC[C@@H]4[C@H](CC[C@]5(C)[C@@H](c6ccc(=O)oc6)CC[C@]45O)[C@@]3(C)CC2)[C@H](O)[C@H](O)[C@H]1O` had a logP of 2.48.

As for `CC(=O)n1c(=O)[nH]cc(F)c1=O`, the logP is -0.34.

`COc1ccc2c(=O)c(C)c(-c3ccccc3)oc2c1CN(C)C` had a logP of 3.65.

`O=c1[nH]c(=S)ccn1[C@H]1CC[C@@H](CO)O1` had a logP of -0.21.

As for `CCCc1c(C)nc2ccccn2c1=O`, the logP was 1.75.

For `CC(C)c1cccc(C2C(=O)c3ccccc3C2=O)c1`, the logP was found to be 4.43.

Regarding `Cc1onc(-c2c(F)cccc2Cl)c1C(=O)NC1C(=O)N2C1SC(C)(C)C2C(=O)O` (stereo unspecified), the lipophilicity (logP) came out at 2.58.

For `Cc1cc(=O)c(=O)[nH][nH]1`, the logP was -0.3.

For `CCCCCCCOC(=O)c1cc(=O)[nH]c(=O)[nH]1`, the logP was 2.15.

Regarding `CCOc1cccc(-c2nnc(S)n(C)c2=O)c1`, the logP stood at 2.67.

`CCC1(c2ccccc2)NC(=O)N(C)C1=O` (stereo unspecified): the logP came out at 1.69.

As to `Nc1ccc(Cl)c(Cl)c1Cl`, the logP is 3.33.

The same series, now with this note: pH 7.4.
Turning to `Cn1c(=O)c2[nH]c(Cl)nc2n(C)c1=O`, the logD is -0.85.

As usually defined, the logP is a log measure of how a compound divides between an organic and an aqueous phase. Higher therefore signals higher lipophilicity. By logD is commonly meant lipophilicity at a set pH, counting ionised and neutral species. Read a high logD as higher lipophilicity.
